According to PubChem BioAssay AID720577 (The Scripps Research Institute Molecular Screening Center, 2013):
Values joined by “and” are separate entries in the source; they are usually repeats but may differ in a detail not shown here. Identical values can stand only once. Active and inactive are the calls of the source. The rule behind the calls is not given here.

Target: CCHF virus vOTU protease domain (L polyprotein)
Experiment: CCHF virus vOTU protease inhibition, Pep AMC substrate counterscreen, fluorescence, confirmatory IC50 (AID 720577)
Conditions: purified vOTU

| Compound | IC50 |
| --- | --- |
| COc1cc2c(cc1O)[C@@H]1Cc3ccc(OC)c(O)c3CN1CC2 | inactive |
| CCCCn1c(NS(=O)(=O)c2ccccc2)c(S(=O)(=O)c2ccc(C)cc2)c2nc3ccccc3nc21 | > 115 µM (inactive) |
| O=C1NC(c2ccc(-c3ccccc3[N+](=O)[O-])o2)C(C(=O)c2ccc(Cl)cc2)C(O)(C(F)(F)F)N1 (centres undefined) | inactive |
| CC1(OC(=O)C2CCCC2)C(=O)C=C2C=C(c3ccsc3)N(CCCCO)C=C2C1=O (centres undefined) | inactive |
| O=C1C(Nc2ccccc2)=C(N2CCCCC2)C(=O)c2ccccc21 | inactive |
| CN(C)c1ccc(C=c2c3cc(O)ccc3n3c2cc(-c2ccccc2)[n+]3C)cc1 | 4.33 µM |
| O=C1C=C(NCc2ccccc2)c2ccccc2C1=O | inactive |
| Cn1c(=O)c2c(-c3ccccc3)n(-c3ccc(N)cc3)cc2n(C)c1=O | inactive |
| CCOC(=O)c1cc2c(=Cc3ccc(N(C)C)cc3)c3ccccc3n2[n+]1C | 5.69 µM |
| O=C(NCCCO)c1ccc2nc(-c3ccco3)c(-c3ccco3)nc2c1 | inactive |
| O=C(COC(=O)c1ccc([N+](=O)[O-])s1)Nc1ccc(F)cc1 | inactive |
| COc1ccc(C(C[N+](=O)[O-])c2c(C)[nH]n(-c3ccccc3)c2=O)cc1 (centres undefined) | > 115 µM (inactive) |
| O=C(c1ccccc1)c1coc2c1C(=O)c1ccccc1C2=O | inactive |
| N#CC1=C(S)N(c2ccccc2)C(c2ccc(-c3ccc(Cl)c(Cl)c3)o2)NC1=O (centres undefined) | > 115 µM (inactive) |
| C=CCN1C=CC(=C/C=C(/C#N)C(=O)OCC)C=C1 | inactive |
| O=[N+]([O-])c1c(Nc2ccccn2)cc(Cl)c2nonc12 | inactive |
| CCOC(=O)N=Nc1c2ccccc2c2nc3no[nH]c3nc12 | 7.75 µM |
| CC(C)(C)c1cc[n+](C2=C([O-])c3ccccc3C(=O)/C2=N\S(=O)(=O)c2cccs2)cc1 | inactive |
| CN(C)c1ccc2nc3ccc(=O)cc-3sc2c1 | > 115 µM (inactive) |
| O=C1C=C(Nc2ccccc2C(=O)O)c2ccccc2C1=O | 7.39 µM |
| CCc1ccc(S(=O)(=O)/N=C2\C=C(Nc3cccc(C(=O)O)c3)C(=O)c3ccccc32)cc1 | 2.51 µM |
| CN1CCN(C2=C(Cl)C(=O)c3ccccc3C2=O)CC1 | 1.07 µM |

| Compound | IC50 |
| --- | --- |
| CC(=O)[C@H]1[C@@H]2C(=O)N(c3cccc(Cl)c3)C(=O)[C@@H]2[C@H]2c3ccccc3C=CN21 | inactive |
| CC(=O)N(/N=C1\Sc2ccccc2C1=O)c1cccc(C)c1 | inactive |
| CCc1cc[n+](C2=C([O-])c3ccccc3C(=O)/C2=N\S(=O)(=O)c2cccs2)cc1 | inactive |
| O=C1Nc2ccc([N+](=O)[O-])cc2C1=Nc1cccc(CO)c1 | inactive |
| Cc1cnc(C=NNC(N)=S)c2cccc(N)c12 | inactive |
| CCOC(=O)N1CCN(C2=C(NS(=O)(=O)c3ccc(C)cc3)C(=O)c3ccccc3C2=O)CC1 | inactive |
| Nc1cc2c(cc1Br)[nH]c(=O)c1ccccc12 | 4.57 µM |
| Cc1oc2c(c1C(=O)N1CCOCC1)C(=O)c1ccccc1C2=O | inactive |
| COc1cc(NC(C)CCCN)c2ncccc2c1 (centres undefined) | inactive |
| O=S(=O)(Nc1cc2nc3ccccc3nc2n1Cc1ccccc1)c1ccc(Cl)cc1 | 7.6 µM |
| COc1ccc(NC(=S)Nc2ccc3nsnc3c2)cc1 | 6.9 µM |
| Cc1ccc2c(c1C)-c1c(ccc(C)c1C)C(=O)C2=O | inactive |
| CC1CCCC(NC(=O)COC(=O)c2ccc([N+](=O)[O-])s2)C1C (centres undefined) | inactive |
| CCCCCCCCCCCCCCCC[n+]1ccccc1 | 7.79 µM and 8.46 µM and 6.99 µM |
| COc1cc2c(cc1OC)-c1c(OC)c(OC)cc3c1[C@H](C2)N(C)CC3 | > 12.7 µM (inactive) |
| O=S(=O)(Nc1c(S(=O)(=O)c2ccccc2)c2nc3ccccc3nc2n1C1CCCCC1)c1ccccc1 | > 115 µM (inactive) |
| CC(C)C[C@H](NC(=O)c1[nH]cnc1C(=O)N[C@@H](C)C(=O)OC(C)(C)C)C(=O)OC(C)(C)C | inactive |
| C[n+]1c2ccccc2nc2ccc(NCCO)cc21 | inactive |
| Cc1ccc(NC2=C(N3CCCCC3)C(=O)c3ccccc3C2=O)cc1 | inactive |
| COc1ccc(-n2c3nc4ccccc4nc3c3c(=N)oc(C)nc32)cc1 | > 115 µM (inactive) |
| Cc1c(Cl)cnc(NC(=O)COC(=O)c2ccc([N+](=O)[O-])s2)c1Cl | inactive |
| O=C1C=C(N2CCCCC2)c2ccccc2C1=O | inactive |

| Compound | IC50 |
| --- | --- |
| Cc1cc(NC2=CC(=O)C(=O)c3ccccc32)no1 | inactive |
| CN(C)S(=O)(=O)c1cccc(NC(=S)Nc2cccc3cnccc23)c1 | inactive |
| O=C(O)c1ccc(NC2=C/C(=N/S(=O)(=O)c3cccs3)c3ccccc3C2=O)cc1 | 1.4 µM |
| CC(=O)N(C1=C(Cl)C(=O)c2ccccc2C1=O)C1CCCCC1 | inactive |
| CC(=O)c1ccc(NC(=S)Nc2cccc3cnccc23)cc1 | 7.69 µM |
| O=C(COC(=O)c1ccc([N+](=O)[O-])s1)Nc1ccccc1 | inactive |
| CCCCCCCCCCCCCCCCn1cc[n+](C)c1 | 7.06 µM |
| O=C(O)c1ccc(NC2=C/C(=N/S(=O)(=O)c3ccccc3)c3ccccc3C2=O)cc1 | 1.03 µM |
| O=C(/C=C/c1ccc(O)cc1)c1ccc(NC2=C(N3CCCCC3)C(=O)c3ccccc3C2=O)cc1 | inactive |
| Cc1coc2c(O)cc3c(c12)OC1(N2CCCCC2)C(=O)NCCCC31 (centres undefined) | inactive |
| CCOC(=O)C1=C(COC(=O)c2ccc([N+](=O)[O-])s2)NC(=O)NC1C (centres undefined) | inactive |
| NC(=S)N=Nc1c(O)cc(O)c2[nH]c(=O)ccc12 | inactive |
| Oc1c(N=Nc2nn[nH]n2)ccc2ccccc12 | inactive |
| C[n+]1c(-c2ccccc2)c2cc(N)ccc2c2ccc(N)cc21 | inactive |
| O=C(NC(=S)Nc1ccccc1N1CCCC1)c1ccc(F)cc1 | > 115 µM (inactive) |
| O=C1C=C(O)c2[nH]c(=O)ccc2C1=O | inactive |
| COC(=O)c1nc(-c2ccc3c(n2)C(=O)C(N)=C(OC)C3=O)c(N)c(-c2ccc(OC)c(OC)c2O)c1C | 2.58 µM |
| O=C1C(Nc2cccc(O)c2)=C(N2CCCCC2)C(=O)c2ccccc21 | inactive |
| CN(C)CCCNc1cc(O)c2ncccc2c1 | inactive |
| c1coc(-c2nnc(-c3ccco3)nn2)c1 | inactive |
| O=C1C(=O)c2cccnc2-c2ncccc21 | inactive |
| Cc1ccc(CNc2ccc(O)cc2)cc1 | inactive |

| Compound | IC50 |
| --- | --- |
| CC(=O)N(/N=C1\Sc2ccccc2C1=O)c1ccccc1C | inactive |
| O=C(O)c1cccc(NC2=C(n3nnc4ccccc43)C(=O)c3ccccc3C2=O)c1 | inactive |
| COc1cc(Br)c(C(=O)c2nccc3cc(OC)c(OC)cc23)cc1OC | 1.13 µM |
| Cc1cnc(C2OCCO2)c2cccc(N)c12 | 5.37 µM |
| O=C1C=C(N2CCOCC2)c2ccccc2C1=O | inactive |
| CCc1ccc(S(=O)(=O)Nc2cc(SCC(=O)O)c(O)c3ccccc23)cc1 | inactive |
| COc1ccc(/C=N/NC(=O)c2nn(-c3ccccc3)c(=O)c3c(N)scc23)cc1 | inactive |
| COC1=CC(=O)c2c(ccc3ncnc(N)c23)C1=O | 0.853 µM |
| Nc1ccc(N2CCCCC2)c2nonc12 | inactive |
| C=CCN1C(=O)/C(=C/c2ccc(OC(C)=O)c(OCC)c2[N+](=O)[O-])SC1=S | inactive |
| Cc1ccc(S(=O)(=O)/N=C2\C=C(Nc3cccc(C(=O)O)c3)C(=O)c3ccccc32)cc1 | 1.99 µM |
| COc1ccc(Cc2nccc3cc(OC)c(OC)cc23)cc1OC | inactive |
| CNc1ccc2nc3ccccc3[n+](C)c2c1 | inactive |
| O=C1C(=NO)CCc2ccccc21 | inactive |
| NC1=C(Br)C(=O)c2ncccc2C1=O | 1.1 µM |
| CCOCCCNC1=C(Cl)C(=O)c2ccccc2C1=O | inactive |
| CCN(CC)CCCC(C)n1c2nc(=O)[nH]c(=O)c-2nc2cc(Cl)ccc21 (centres undefined) | 5.44 µM |
| O=C1Cc2ccccc2C(=O)N1 | 0.597 µM |
| O=C(c1ccco1)[C@@H]1[C@@H]2C(=O)N(c3ccc(Br)cc3)C(=O)[C@@H]2C2c3ccccc3C=CN21 (some centres undefined) | inactive |
| COc1cc(C(=O)c2nccc3cc(OC)c(OC)cc23)c([N+](=O)[O-])cc1OC | 4.04 µM |
| COc1cc(NCCCCCCN)c2ncccc2c1OC | 5.97 µM |
| O=c1[nH]c(=S)[nH]c2c1C(c1ccc(Br)cc1)c1c([nH]c(=S)[nH]c1=O)O2 | inactive |

| Compound | IC50 |
| --- | --- |
| NC1=C(Br)C(=O)c2ccccc2C1=O | 6.65 µM |
| O=S(=O)(c1ccc2nc(-c3ccco3)c(-c3ccco3)nc2c1)N1CCOCC1 | > 115 µM (inactive) |
| COC1=C(Br)C(=O)c2nc(C)ccc2C1=O | inactive |
| CC(C)=CCC1=C(OCC(=O)O)C(=O)c2ccccc2C1=O | inactive |
| CCCCCCCCCCCCN1[C@@H](CC(=O)O)c2cc(F)ccc2S1(=O)=O | inactive |
| CC(=O)c1ccc(NC2=C(N3CCOCC3)C(=O)c3ccccc3C2=O)cc1 | inactive |
| CCOc1ccc(NC(=S)Nc2ccc3nsnc3c2)cc1 | inactive |
| CN1/C(=C\C=C2C(=O)NC(=O)NC2=O)C(C)(C)c2ccccc21 | inactive |
| COc1cc2c(cc1OC)-c1c(OC)c(OC)cc3c1C(C2)N(C)CC3 (centres undefined) | > 115 µM (inactive) |
| COc1ccc(CNC(=O)c2c(C)oc3c2C(=O)c2ccccc2C3=O)cc1 | inactive |
| CCCCn1c(NS(=O)(=O)c2ccccc2)c(C(=O)OCC)c2nc3ccccc3nc21 | > 115 µM (inactive) |
| CC(=O)N(C1=C(Cl)C(=O)c2ccccc2C1=O)c1ccc(C(=O)O)cc1 | 4.77 µM |
| O=C(NC(=S)Nc1ccccc1N1CCCC1)c1cccs1 | > 115 µM (inactive) |
| S=C(Nc1ccc(Cl)cc1)Nc1cccc2cnccc12 | 8.74 µM |
| COc1ccccc1Nc1cc2cc(Br)ccc2c(=O)[nH]1 | 1.36 µM |
| Oc1ccccc1CNc1cccc2cccnc12 | inactive |
| C[n+]1c(-c2ccccc2)cc2c(=Cc3ccccc3)c3ccccc3n21 | 3.65 µM |
| CCCNC1=C(N(C(C)=O)c2cccc(F)c2)C(=O)c2ccccc2C1=O | > 12.7 µM (inactive) |
| C[n+]1cccc2cccc([O-])c21 | inactive |
| CCOC(=O)c1c(C)[nH]c2c1-c1ccccc1C(=O)C2=O | 0.662 µM |
| Oc1c(C=Nc2cccc3nsnc23)ccc2ccccc12 | inactive |
